Assay results taken from US4684664A, “Derivatives of β-(4-isocyano-1,2,3,4-diepoxycyclopentyl) acrylic acid” (Kureha Kagaku Kogyo Kabushiki Kaisha, priority 1984, dated 1987).
Values after ≈ are worked out from the molar mass of the structure shown.

Tests used:
Format in all cases: cell-based
[1] = system: Candida albicans IAM 4905; assay: Antifungal activity, agar-dilution MIC, organism No. 29; conditions: Candida albicans, IAM4905; Organism No. 29, bouillon-agar; read-out: Minimum Inhibitory Concentration
Excerpt: (§1) Agar-dilution method was used for determination of the antibacterial activity and antifungal activity while using bouillon-agar culture medium, and the minimum inhibitory concentration of the specimen was expressed by μg/ml of the culture medium.

Enterobacter cloacae 963 = assay: Antibacterial activity, agar-dilution MIC, organism No. 24; conditions: Enterobacter cloacae, 963; Organism No. 24, bouillon-agar; read-out: Minimum Inhibitory Concentration
Excerpt: as §1

[2] = system: Salmonella shottmuelleri 8006; assay: Antibacterial activity, agar-dilution MIC, organism No. 11; conditions: Salmonella, 8006; Organism No. 11, bouillon-agar; read-out: Minimum Inhibitory Concentration
Excerpt: as §1

[3] = system: Streptococcus faecium IFO 3826; assay: Antibacterial activity, agar-dilution MIC, organism No. 27; conditions: Enterococcus faecium, IFO3826; Organism No. 27, bouillon-agar; read-out: Minimum Inhibitory Concentration
Excerpt: as §1

[4] = system: Proteus morganii IFO 3848; assay: Antibacterial activity, agar-dilution MIC, organism No. 18; conditions: Morganella morganii, IFO3848; Organism No. 18, bouillon-agar; read-out: Minimum Inhibitory Concentration
Excerpt: as §1

[5] = system: Escherichia coli NIHJ-JC-2; assay: Antibacterial activity, agar-dilution MIC, organism No. 5; conditions: Escherichia coli, NIHJJC2; Organism No. 5, bouillon-agar; read-out: Minimum Inhibitory Concentration
Excerpt: as §1

[6] = system: Salmonella enteritidis G 14; assay: Antibacterial activity, agar-dilution MIC, organism No. 12; conditions: Salmonella enterica, ENTERITIDIS; Organism No. 12, bouillon-agar; read-out: Minimum Inhibitory Concentration
Excerpt: as §1

[7] = system: Pseudomonas aeruginosa PAO 1; assay: Antibacterial activity, agar-dilution MIC, organism No. 17; conditions: Pseudomonas aeruginosa, PAO1; Organism No. 17, bouillon-agar; read-out: Minimum Inhibitory Concentration
Excerpt: as §1

[8] = system: Escherichia coli K12 C600 IAM 1264; assay: Antibacterial activity, agar-dilution MIC, organism No. 6; conditions: Escherichia coli, IAM1264; Organism No. 6, bouillon-agar; read-out: Minimum Inhibitory Concentration
Excerpt: as §1

Proteus vulgaris OX-19 = assay: Antibacterial activity, agar-dilution MIC, organism No. 20; conditions: Proteus vulgaris, OX19; Organism No. 20, bouillon-agar; read-out: Minimum Inhibitory Concentration
Excerpt: as §1

[9] = system: Bacillus subtilis ATCC 6633; assay: Antibacterial activity, agar-dilution MIC, organism No. 14; conditions: Bacillus subtilis, ATCC6633; Organism No. 14, bouillon-agar; read-out: Minimum Inhibitory Concentration
Excerpt: as §1

[10] = system: Enterobacter aerogenes ATCC 13048; assay: Antibacterial activity, agar-dilution MIC, organism No. 23; conditions: Klebsiella aerogenes, ATCC13048; Organism No. 23, bouillon-agar; read-out: Minimum Inhibitory Concentration
Excerpt: as §1

[11] = system: Salmonella paratyphi-A 1015; assay: Antibacterial activity, agar-dilution MIC, organism No. 10; conditions: Salmonella enterica, PARATYPHI, read-out: Minimum Inhibitory Concentration
Excerpt: as §1

[12] = system: Pseudomonas aeruginosa NCTC 10490; assay: Antibacterial activity, agar-dilution MIC, organism No. 16; conditions: Pseudomonas aeruginosa, NCTC10490; Organism No. 16, bouillon-agar; read-out: Minimum Inhibitory Concentration
Excerpt: as §1

[13] = system: Proteus mirabilis IFO 3849; assay: Antibacterial activity, agar-dilution MIC, organism No. 19; conditions: Proteus mirabilis, IFO3849; Organism No. 19, bouillon-agar; read-out: Minimum Inhibitory Concentration
Excerpt: as §1

[14] = system: Aspergillus niger IFO 6342; assay: Antifungal activity, agar-dilution MIC, organism No. 30; conditions: Aspergillus niger, IFO6342; Organism No. 30, bouillon-agar; read-out: Minimum Inhibitory Concentration
Excerpt: as §1

[15] = system: Staphylococcus aureus Terajima; assay: Antibacterial activity, agar-dilution MIC, organism No. 2; conditions: Staphylococcus aureus; Organism No. 2, bouillon-agar; read-out: Minimum Inhibitory Concentration
Excerpt: as §1

[16] = system: Staphylococcus aureus MS 353; assay: Antibacterial activity, agar-dilution MIC, organism No. 3; conditions: Staphylococcus aureus, MS353; Organism No. 3, bouillon-agar; read-out: Minimum Inhibitory Concentration
Excerpt: as §1

[17] = system: Micrococcus luteus ATCC 9341; assay: Antibacterial activity, agar-dilution MIC, organism No. 25; conditions: Micrococcus luteus, ATCC9341; Organism No. 25, bouillon-agar; read-out: Minimum Inhibitory Concentration
Excerpt: as §1

[18] = system: Streptococcus pyogenes Cook; assay: Antibacterial activity, agar-dilution MIC, organism No. 4; conditions: Streptococcus pyogenes; Organism No. 4, bouillon-agar; read-out: Minimum Inhibitory Concentration
Excerpt: as §1

Salmonella typhi 901 = assay: Antibacterial activity, agar-dilution MIC, organism No. 9; conditions: Salmonella enterica, TYPHI, read-out: Minimum Inhibitory Concentration
Excerpt: as §1

[19] = system: Streptococcus pyogenes IFO 3340; assay: Antibacterial activity, agar-dilution MIC, organism No. 26; conditions: Streptococcus pyogenes, IFO3340; Organism No. 26, bouillon-agar; read-out: Minimum Inhibitory Concentration
Excerpt: as §1

[20] = system: Pseudomonas aeruginosa IFO 3445; assay: Antibacterial activity, agar-dilution MIC, organism No. 15; conditions: Pseudomonas aeruginosa, IFO3445; Organism No. 15, bouillon-agar; read-out: Minimum Inhibitory Concentration
Excerpt: as §1

[21] = system: Salmonella typhimurium IID 971; assay: Antibacterial activity, agar-dilution MIC, organism No. 8; conditions: Salmonella enterica; Organism No. 8, bouillon-agar; read-out: Minimum Inhibitory Concentration
Excerpt: as §1

[22] = system: Klebsiella pneumoniae PCI-602; assay: Antibacterial activity, agar-dilution MIC, organism No. 7; conditions: Klebsiella pneumoniae, PCI602; Organism No. 7, bouillon-agar; read-out: Minimum Inhibitory Concentration
Excerpt: as §1

[23] = system: Mycoplasma pneumoniae IID817; assay: Antimycoplasmal activity, MIC by phenol red colour change, organism No. 28; conditions: Mycoplasma, IID817; Organism No. 28, PPLO broth + 1% glucose, 37° C.; read-out: Minimum Inhibitory Concentration (MIC)
Protocol: Mycoplasma pneumoniae IID817 was used as the test microorganism in a culture medium prepared by adding 1% of glucose to "PPLO broth (manufactured by Difco Co.) liquid culture medium" at 37° C. with phenol red as an indicator, thereby culturing the test microorganism.

[24] = system: Staphylococcus aureus FDA 209PJc-1; assay: Antibacterial activity, agar-dilution MIC, organism No. 1; conditions: Staphylococcus aureus, FDA209PJC1; Organism No. 1, bouillon-agar; read-out: Minimum Inhibitory Concentration
Excerpt: as §1

[25] = system: Proteus rettgeri IFO 3850; assay: Antibacterial activity, agar-dilution MIC, organism No. 22; conditions: Providencia rettgeri, IFO3850; Organism No. 22, bouillon-agar; read-out: Minimum Inhibitory Concentration
Excerpt: as §1

Proteus vulgaris HX-19 = assay: Antibacterial activity, agar-dilution MIC, organism No. 21; conditions: Proteus vulgaris, HX19; Organism No. 21, bouillon-agar; read-out: Minimum Inhibitory Concentration
Excerpt: as §1

SMILES	MIC [1]	MIC (Enterobacter cloacae 963)	MIC [2]	MIC [3]	MIC [4]	MIC [5]	MIC [6]	MIC [7]	MIC [8]	MIC (Proteus vulgaris OX-19)	MIC [9]	MIC [10]	MIC [11]	MIC [12]	MIC [13]	MIC [14]	MIC [15]	MIC [16]	MIC [17]	MIC [18]	also measured
[C-]#[N+]C12CC3(/C=C/C(=O)N[C@@H](CC(=O)OC)C(=O)OC)OC3C1O2 (some centres unmarked) [Compound No. 27]	100 µg/mL (≈ 297 µM)	> 200 µg/mL	25 µg/mL (≈ 74.3 µM)	> 200 µg/mL	25 µg/mL (≈ 74.3 µM)	100 µg/mL (≈ 297 µM)	25 µg/mL (≈ 74.3 µM)	> 200 µg/mL	50 µg/mL (≈ 149 µM)	25 µg/mL (≈ 74.3 µM)	100 µg/mL (≈ 297 µM)	> 200 µg/mL	25 µg/mL (≈ 74.3 µM)	> 200 µg/mL	> 200 µg/mL	> 100 µg/mL	100 µg/mL (≈ 297 µM)	25 µg/mL (≈ 74.3 µM)	12.5 µg/mL (≈ 37.2 µM)	50 µg/mL (≈ 149 µM)	MIC (Salmonella typhi 901): 25 µg/mL (≈ 74.3 µM); MIC [19]: 50 µg/mL (≈ 149 µM); MIC [20]: > 200 µg/mL; MIC [21]: 100 µg/mL (≈ 297 µM); MIC [22]: 25 µg/mL (≈ 74.3 µM); MIC [23]: > 100 µg/mL; MIC [24]: 25 µg/mL (≈ 74.3 µM); MIC [25]: > 200 µg/mL; MIC (Proteus vulgaris HX-19): 12.5 µg/mL (≈ 37.2 µM)
[C-]#[N+]C12CC3(/C=C/C(=O)NC4C(=O)N5C4SC(C)(C)C5C(=O)OCC(=O)c4ccc(Br)cc4)OC3C1O2 (centres unmarked) [Compound No. 33]	1.56 µg/mL (≈ 2.65 µM)	25 µg/mL (≈ 42.5 µM)	0.38 µg/mL (≈ 0.646 µM)	0.8 µg/mL (≈ 1.36 µM)	> 200 µg/mL	25 µg/mL (≈ 42.5 µM)	1.56 µg/mL (≈ 2.65 µM)	> 200 µg/mL	25 µg/mL (≈ 42.5 µM)	100 µg/mL (≈ 170 µM)	0.78 µg/mL (≈ 1.33 µM)	> 100 µg/mL	0.38 µg/mL (≈ 0.646 µM)	> 200 µg/mL	> 200 µg/mL	3.13 µg/mL (≈ 5.32 µM)	0.78 µg/mL (≈ 1.33 µM)	1.56 µg/mL (≈ 2.65 µM)	3.13 µg/mL (≈ 5.32 µM)	0.78 µg/mL (≈ 1.33 µM)	MIC (Salmonella typhi 901): 3.13 µg/mL (≈ 5.32 µM); MIC [19]: 0.8 µg/mL (≈ 1.36 µM); MIC [20]: > 200 µg/mL; MIC [21]: 12.5 µg/mL (≈ 21.2 µM); MIC [22]: 25 µg/mL (≈ 42.5 µM); MIC [23]: < 0.2 µg/mL; MIC [24]: 1.56 µg/mL (≈ 2.65 µM); MIC [25]: > 100 µg/mL; MIC (Proteus vulgaris HX-19): 1.56 µg/mL (≈ 2.65 µM)
[C-]#[N+]C12CC3(/C=C/C(=O)Nc4ccc(Br)cc4)OC3C1O2 (centres unmarked) [compound 44]	0.39 µg/mL (≈ 1.12 µM)	> 200 µg/mL	3.13 µg/mL (≈ 9.02 µM)	200 µg/mL (≈ 576 µM)	3.13 µg/mL (≈ 9.02 µM)	> 200 µg/mL	50 µg/mL (≈ 144 µM)	> 200 µg/mL	> 200 µg/mL	6.25 µg/mL (≈ 18 µM)	25 µg/mL (≈ 72 µM)	> 200 µg/mL	3.13 µg/mL (≈ 9.02 µM)	> 200 µg/mL	> 200 µg/mL	1.56 µg/mL (≈ 4.49 µM)	3.13 µg/mL (≈ 9.02 µM)	0.39 µg/mL (≈ 1.12 µM)	< 0.05 µg/mL	> 200 µg/mL	MIC (Salmonella typhi 901): 12.5 µg/mL (≈ 36 µM); MIC [19]: 12.5 µg/mL (≈ 36 µM); MIC [20]: > 200 µg/mL; MIC [21]: 50 µg/mL (≈ 144 µM); MIC [22]: 0.2 µg/mL (≈ 0.576 µM); MIC [23]: < 0.2 µg/mL; MIC [24]: 0.39 µg/mL (≈ 1.12 µM); MIC [25]: 100 µg/mL (≈ 288 µM); MIC (Proteus vulgaris HX-19): 0.1 µg/mL (≈ 0.288 µM)
[C-]#[N+]C12CC3(/C=C/C(=O)Nc4ccccc4C)OC3C1O2 (centres unmarked) [compound 39]	0.39 µg/mL (≈ 1.38 µM)	200 µg/mL (≈ 708 µM)	3.13 µg/mL (≈ 11.1 µM)	200 µg/mL (≈ 708 µM)	100 µg/mL (≈ 354 µM)	> 200 µg/mL	50 µg/mL (≈ 177 µM)	> 200 µg/mL	> 200 µg/mL	6.25 µg/mL (≈ 22.1 µM)	> 200 µg/mL	> 200 µg/mL	12.5 µg/mL (≈ 44.3 µM)	> 200 µg/mL	> 200 µg/mL	1.56 µg/mL (≈ 5.53 µM)	3.13 µg/mL (≈ 11.1 µM)	1.56 µg/mL (≈ 5.53 µM)	< 0.05 µg/mL	100 µg/mL (≈ 354 µM)	MIC (Salmonella typhi 901): 25 µg/mL (≈ 88.6 µM); MIC [19]: 25 µg/mL (≈ 88.6 µM); MIC [20]: > 200 µg/mL; MIC [21]: > 200 µg/mL; MIC [22]: 1.56 µg/mL (≈ 5.53 µM); MIC [23]: < 0.2 µg/mL; MIC [24]: 0.78 µg/mL (≈ 2.76 µM); MIC [25]: > 200 µg/mL; MIC (Proteus vulgaris HX-19): < 0.05 µg/mL
